In patent US6399660B1, “Aminoethylphenoxyacetic acid derivatives and drugs for pain remission and calculi removal promotion in urinary lithiasis” (Kissei Pharmaceutical Co., Ltd., priority 1997, dated 2002):

Columns and labels:
Format in all cases: cell-based
β2-Adrenoceptor = biological target: T1, β2-Adrenoceptor (Rattus norvegicus, UniProt P10608); assay: β2-Adrenoceptor stimulating effects: inhibition of spontaneous contractions of isolated pregnant rat uterus (Magnus method); settings: isolated uterus of pregnant SD rats (day 21), cumulative addition every 5 minutes, read-out: EC50 value (concentration required to produce 50% inhibition of uterine contractions), Test Example 1
T1 construct: Uteri of pregnant SD rats (pregnancy day 21) were isolated and longitudinal smooth muscle strips; from tissue; host or cells: longitudinal smooth muscle strips of pregnant SD rat uterus (day 21)
Method: Uteri of pregnant SD rats (pregnancy day 21) were isolated and longitudinal smooth muscle strips of approximately 15 mm in length and approximately 5 mm in width free from the basal plate were prepared. The experiment was conducted according to the Magnus method. The preparations with a tension of 1 g were exposed to Locke-Ringer solution maintained at 37° C. and gassed with a mixture of 95% oxygen and 5% carbon dioxide. Spontaneous contractions of myometrium were isometrically measured with a force-displacement transducer and recorded by a rectigraph. The drug was cumulatively added to the Magnus bath every 5 minutes. The drug efficacy was evaluated as the concentration of the drug required to produce 50% of the inhibition of uterine contractions (i.e., EC50 value) by comparing the sum of uterine contractions during 5 minutes after the addition of the drug with the sum of uterine contractions during 5 minutes before the addition of the drug (100%).

β1-Adrenoceptor = biological target: T2, β1-Adrenoceptor (Rattus norvegicus, UniProt P18090); assay: β1-Adrenoceptor stimulating effects: heart rate increase in isolated rat atrium (Magnus method); settings: isolated atria of male SD rats
T2 construct: Atria of male SD rats (350 to 400 g in body weight) were isolated; from tissue; host or cells: isolated atria of male SD rats
Method: Atria of male SD rats (350 to 400 g in body weight) were isolated and the experiment was conducted according to the Magnus methods. The preparations with a tension of 1 g were exposed to Krebs-Henseleit solution maintained at 37° C. and gassed with a mixture of 95% oxygen and 5% carbon dioxide. The cardiac contractility was isometrically measured with a force-displacement transducer and recorded by a rectigraph. The drug efficacy was evaluated as the molar concentration required to produce 20 beats/minute increment of the heart rate (i.e., ECΔ20 value).

β3-Adrenoceptor = β3-Adrenoceptor (Mustela putorius furo, UniProt M3YEU4); assay: β3-Adrenoceptor stimulating effects: inhibition of spontaneous contractions of isolated ferret ureter (Magnus method); settings: isolated male ferret ureter, cumulative addition every 3 minutes, read-out: EC50 value (concentration required to produce 50% inhibition of ureter contractions), Test Example 2
Method: After removal of connective tissue, longitudinal smooth muscle strips of approximately 20 mm in length were prepared. The experiment was conducted according to the Magnus method. The preparations with a tension of 0.5 g were exposed to Krebs-Henseleit solution maintained at 37° C. and gassed with a mixture of 95% oxygen and 5% carbon dioxide. Spontaneous contractions of ureters were isometrically measured with a force-displacement transducer and recorded by a rectigraph. The drug was cumulatively added to the Magnus bath every 3 minutes.

T1 sequence (P10608 whole entry): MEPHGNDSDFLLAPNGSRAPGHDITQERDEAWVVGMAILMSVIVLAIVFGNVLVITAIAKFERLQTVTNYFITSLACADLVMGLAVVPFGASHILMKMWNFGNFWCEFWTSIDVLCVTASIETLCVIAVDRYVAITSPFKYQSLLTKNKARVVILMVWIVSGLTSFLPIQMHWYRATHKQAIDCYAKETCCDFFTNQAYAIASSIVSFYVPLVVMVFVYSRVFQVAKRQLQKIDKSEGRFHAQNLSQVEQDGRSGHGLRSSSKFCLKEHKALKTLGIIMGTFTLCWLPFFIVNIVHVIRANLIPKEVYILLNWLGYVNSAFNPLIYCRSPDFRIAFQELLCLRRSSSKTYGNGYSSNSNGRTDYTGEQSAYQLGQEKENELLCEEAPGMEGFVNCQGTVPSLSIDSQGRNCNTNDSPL
T2 sequence (P18090 whole entry): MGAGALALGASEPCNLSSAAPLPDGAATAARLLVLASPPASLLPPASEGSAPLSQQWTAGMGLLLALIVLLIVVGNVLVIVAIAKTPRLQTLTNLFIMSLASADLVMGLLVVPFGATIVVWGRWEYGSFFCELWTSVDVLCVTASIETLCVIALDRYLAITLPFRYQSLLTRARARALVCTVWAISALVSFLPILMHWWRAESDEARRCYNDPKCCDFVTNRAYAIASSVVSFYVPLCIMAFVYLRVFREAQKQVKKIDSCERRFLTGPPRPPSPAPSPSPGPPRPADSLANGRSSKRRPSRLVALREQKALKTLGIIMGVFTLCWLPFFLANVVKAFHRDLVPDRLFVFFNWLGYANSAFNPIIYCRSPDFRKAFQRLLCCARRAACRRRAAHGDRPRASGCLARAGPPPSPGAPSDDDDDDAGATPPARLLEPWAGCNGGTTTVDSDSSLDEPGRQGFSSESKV
Sequence of β3-Adrenoceptor (M3YEU4 entry or part of it): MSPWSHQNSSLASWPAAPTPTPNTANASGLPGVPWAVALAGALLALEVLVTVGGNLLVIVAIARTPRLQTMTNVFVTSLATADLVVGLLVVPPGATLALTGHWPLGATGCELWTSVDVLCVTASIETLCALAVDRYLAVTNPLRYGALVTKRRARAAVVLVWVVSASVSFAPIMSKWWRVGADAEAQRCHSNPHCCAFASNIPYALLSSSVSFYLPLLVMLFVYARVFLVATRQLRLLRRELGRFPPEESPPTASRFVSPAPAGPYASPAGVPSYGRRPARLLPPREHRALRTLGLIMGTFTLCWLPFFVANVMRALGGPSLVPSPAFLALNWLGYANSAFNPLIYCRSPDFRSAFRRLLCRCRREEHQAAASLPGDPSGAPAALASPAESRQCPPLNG

| Compound | EC50 (β2-Adrenoceptor) [nM] | ECΔ20 value (molar concentration required to produce 20 beats/minute increment of the heart rate), Test Example 3 (β1-Adrenoceptor) [nM] | EC50 (β3-Adrenoceptor) [nM] | ECΔ20 value (molar concentration required to produce 20 beats/minute increment of the heart rate), Test Example 3 (β1-Adrenoceptor; listed as 2-[4-[2-[[(1S,2R)-2-hydroxy-2-(4-hydroxyphenyl)-1-methylethyl]amino]ethyl]phenox) [nM] |
| --- | --- | --- | --- | --- |
| C[C@H](NCCc1ccc(OCC(=O)OCc2ccccc2)cc1F)[C@H](O)c1ccc(O)cc1.Cl [Compound 7, Benzyl 2-[3-fluoro-4-[2-[[(1S,2R)-2-hydroxy-2-(4-hydroxyphenyl)-1-methylethyl]amino]ethyl]phenoxy]acetate hydrochloride] | 3.3 | 300 |  |  |
| C[C@H](NCCc1ccc(OCC(=O)O)cc1Cl)[C@H](O)c1ccc(O)cc1 [Compound 8, 2-[3-Chloro-4-[2-[[(1S,2R)-2-hydroxy-2-(4-hydroxyphenyl)-1-methyl-ethyl]amino]ethyl]phenoxy]acetic acid] | 13 | 110 |  |  |
| C[C@H](NCCc1ccc(OCC(=O)O)cc1)[C@H](O)c1ccc(O)cc1 [Compound 9, 2-[4-[2-[[(1S,2R)-2-Hydroxy-2-(4-hydroxyphenyl)-1-methylethyl]-amino]ethyl]phenoxy]acetic acid] |  | 1300 | 14 | 1300 |
| C[C@H](NCCc1ccc(OCC(=O)O)cc1F)[C@H](O)c1ccc(O)cc1 [Compound 10, 2-[3-Fluoro-4-[2-[[(1S,2R)-2-hydroxy-2-(4-hydroxyphenyl)-1-methyl-ethyl]amino]ethyl]phenoxy]acetic acid] | 39 | 1000 |  |  |
